Results on 6 compounds are retold here after patent US20030113330A1, “Methods for treating pulmonary fibrosis” (priority 1999, published 2003).

Data set [1] has as its system primary alveolar epithelial cells (AEC). The data set can be described thus: Bleomycin-induced apoptosis of primary AEC in vitro. The procedure:
(§1) Lung Cell Isolation and Detection of Apoptosis In Vitro. Primary alveolar epithelial cells (AEC) were isolated from adult male Wistar rats as described above. The primary cells were studied at day two of culture, a time at which they are type II cell-like by accepted morphologic and biochemical criteria, see Paine et al., Am. J. Physiol. […] All cells were seeded in 24-well or 6-well chambers, and all experiments were conducted at subconfluent densities of 80-90% in serum-free Ham's F12 medium. Test reagents were diluted with Ham's F12 medium and were applied for 20 hours at 37° C. in a 5% CO2 incubator.
(§2) Detection of apoptotic cells with propidium iodide (PI) was conducted as described above, following digestion of ethanol-fixed cells with DNAse-free RNAse in PBS containing 5 ug/ml PI.
Apoptosis was detected as described above.

Data set [2] deals with primary rat AEC. The following applies: captopril 500 ng/ml, saralasin 50 ug/ml, Losartan 5 pg/ml; amiodarone 2.5 ug/ml for chelerythrine, orthovanadate. The method, then:
as §1, with “The human lung adenocarcinoma cell line A549 (ATCC) was cultured in Ham's F12 medium supplemented with 10% fetal bovine serum (FBS).” for “Lung Cell Isolation and Detection of Apoptosis In Vitro.”, “cells” for “cells (AEC)”, “rats.” for “rats as described above.”, “criteria.” for “criteria, see Paine et al., Am. J. Physiol.”, “37C.” for “37° C.”
Apoptotic cells were detected using propidium iodide (PI) following digestion of ethanol-fixed cells with DNAse-free RNAse in PBS containing 5 ug/ml PI. […] In replicate culture vessels, necrosis was detected as the loss of exclusion of PI after application of the vital dye directly to the cell culture medium at 5 ug/ml final concentration. Red fluorescent (PI-POSITIVE) cells (>570 nm) were scored over the subsequent hour as a percentage of the total cells in any given field. A minimum of 4 separate fields were scored in each of three separate culture vessels per experiment condition; all experiments were performed at least twice and the data were compiled. Although all necrotic cells are PI-positive, some apoptotic cells may also take up the dye but these comprise a minor fraction of the total dead cell population.
In all assays, detached cells were retained by centrifugation of the culture vessel at 300×g for 10 minutes with a centrifuge rotor designed for culture plates. For detection of necrosis (dye exclusion of PI), the PI was added directly to the cell culture medium immediately before centrifugation of the culture vessel. For detection of apoptosis, ethanol was added directly to the cell culture medium to a final concentration of 70% immediately before the centrifugation. Afterward, the ethanol was carefully removed and the total cell population (attached plus sedimented detached cells) were stained with PI as described above.

The test system of data set [3] is primary rat AEC. The data set can be described thus: Angiotensin II-induced apoptosis in primary rat AEC (nuclear fragmentation, PI). It is filed as cell-based. The following applies: ANGII 5.0 uM; saralasin 50 ug/ml, lisinopril 500 ng/ml. The source says:
Cell Culture. The human lung adenocarcinoma cell line A549 was obtained from American Type Culture Collection and cultured in Ham's F12 medium supplemented with 10% fetal bovine serum (FBS). Primary alveolar epithelial cells were isolated from adult male Wistar rats as described in Uhal et al., Am. J. Physiol. Suppl. (Oct.) 261:110-117 (1991) and Uhal et al., Am. J. Physiol. 269:L819-L828 (1995). The primary cells were studied at day two of culture, a time at which they are type II cell-like by accepted morphologic and biochemical criteria, see Uhal, Am. J. Physiol. 272:L1031-L1045 (1997). […] J. Physiol. Suppl. (October) 261:110-117 (1991). All cells were seeded in 24-well or 6-well chambers, and all experiments were conducted at subconfluent densities of 80-90% in serum-free Ham's F12 medium. Test reagents were diluted with Ham's F12 medium and were applied for 20 h at 37° C. in a 5% CO2 incubator.
Detection of Apoptosis. Detection of apoptotic cells with propidium iodide (PI) was conducted as described in Uhal, et al., Am. J. Physiol. 275:L1013-1017 (1998) following digestion of ethanol-fixed cells with DNAse-free RNAse in PBS containing 5 ug/ml PI. Assay of Annexin V binding by flow cytometry was performed essentially as described for human lung fibroblasts in Uhal, et al., Am. J. Physiol. 275:L998-L1005 (1998) after trypsinization of cells from culture vessels. Assay of Caspase-3 activity was performed on viable suspension cultures as reported in Uhal, et al., Am. J. Physiol. 275:L1013-1017 (1998). In all assays, detached cells were retained by centrifugation of the culture vessels during fixation with 70% ethanol, or by retention of culture media and recovery by centrifugation before assay.
For microscopy, cells were cultured on glass cover slips, incubated with test reagents and fixed with 70% ethanol. The fixed cells were immunolabeled overnight at 4° C. with monoclonal antibodies to cytokeratins 7 and 19 (Chemicon International, Temecula, Calif.), and then for one hour at 37° C. with anti-mouse IgG-rhodamine and DNAse-free RNAse (Boehringer Mannheim, Indianapolis, Ind.) The cover slips were then rinsed in distilled water three times and mounted under Fluoromount Solution (Southern Biotechnology Associates, Birmingham, Ala.) containing 5 ug/ml propidium iodide. Photomicroscopy was performed as described in Uhal, et al., Am. J. Physiol. 275:L1013-1017 (1998).
Apoptosis in alveolar epithelial cells was quantitated by fluorescence detection of chromatin condensation and nuclear fragmentation in alcohol-fixed cells stained with propidium iodide. See Uhal, et al., Am. J. Physiol. 275:L1013-1017 (1998). […] After 20 h, the culture vessel was centrifuged to retain detached cells and labeled with anticytokeratin antibodies and propidium iodide. […] Double labeling with PI and monoclonal antibodies to cytokeratins 7 and 19 identified cells with both apoptotic nuclear morphology and positive anticytokeratin immunoreactivity.

Data set [4] concerns primary rat alveolar epithelial cells. As to the kind of experiment: Apoptosis of rat AEC induced by human lung fibroblast-conditioned media. The following applies: saralasin 50 ug/ml, DEVD-fmk 60 uM, anti-ANGII IgG 1 ug/ml. In kind it is cell-based.
Source text: Fibroblast Isolation, Culture and Preparation of Conditioned Media. Primary human lung fibroblasts were isolated at the National Institute of Respiratory Diseases, Mexico. […] Of these, “fibrotic” lung fibroblast strains (HIPF-X, where X=patient number) were derived from patients suffering from either of two different types of interstitial lung disease (ILD): Idiopathic Pulmonary Fibrosis (IPF) and Chronic Hypersensitivity Pneumonitis (CHP). In both diseases, patients had clinical, functional and radiologic features which fulfill the diagnostic criteria for an ILD. […] Briefly, all patients had progressive dyspnea, bilateral reticulonodular images on chest roentgenogram, restrictive lung functional impairment with decreased lung volumes and compliance, and hypoxemia at rest that worsened with exercise. […] Patients with IPF had neither antecedents of any occupational or environmental exposure nor other known cause of ILD. […] Biopsies lacked granulomas, vasculitis, microorganisms, and inorganic material by polarized light microscopy.
Control fibroblasts were obtained from individuals having undergone a lobectomy for removal of a primary lung tumor. […] Lung fibroblasts from normal or fibrotic tissue were isolated by trypsin dispersion, and fibroblast strains were established in Dulbecco's modified Eagle's medium (or in Ham's F-12 medium) supplemented with 10% fetal calf serum, 200 U/ml penicillin, and 200 mg/ml streptomycin. […]
Epithelial Cell Culture and Detection of Apoptosis. […] All epithelial cell preparations were greater than 90% pure as determined by acridine orange uptake into lamellar bodies. […] Epithelial cell apoptosis was detected by the assessment, under fluorescence microscopy, of chromatin condensation and nuclear fragmentation within cytokeratin-positive cells after ethanol fixation and staining with propidium iodide. […]
The percentage increase in rat AEC apoptosis was determined by propidium iodide assay of primary alveolar epithelial cells exposed to serum-free conditioned media, see Uhal et al., Am.
The test system of data set [5] is primary rat AEC. The data set can be described thus: Fas ligand-induced apoptosis of primary rat alveolar epithelial cells. The following applies: captopril, lisinopril 500 ng/ml; caspase inhibitors 60 uM. In kind it is cell-based. The method, then:
as §1, §2
Expression of FAS by alveolar epithelial cells is observed during bleomycin-induced fibrogenesis in mice. See Hagimoto, et al., Am. J. Respir. Cell Mol. Biol. 16:91-101 (1997). […] Apoptosis was detected by quantitation of fragmented nuclei (see above).
Cell Culture and Detection of Apoptosis. The human lung adenocarcinoma cell line A549 was obtained from American Type Culture Collection and cultured in Ham's F12 medium supplemented with 10% fetal bovine serum (FBS). Primary alveolar epithelial cells were isolated from adult male Wistar rats as described earlier (Uhal, B. D., I. Joshi, A. True, S. Mundle, A. Raza, A. Pardo and M. Selman. Fibroblasts isolated after fibrotic lung injury induce apoptosis of alveolar epithelial cells in vitro. Am. J. Physiol. 269:L819-L828, 1995); Wang, R., A. Zagariya, 0. Ibarra-Sunga, C. […] Am. J. Physiol. 276:L885-L889 (1999)). […] All cells were seeded in 24-well or 6-well chambers, and all experiments were conducted at subconfluent densities of 80-90% in serum-free Ham's F12 medium. Test reagents were diluted with serum-free Ham's F12 medium and were applied under serum-free conditions for 20 hours at 37C. in a 5% CO2 incubator. Detection of apoptotic cells with propidium iodide (PI) was conducted as described above Am. J. Physiol. 275:L1013-1017 (1998); Uhal et al., following digestion of ethanol-fixed cells with DNAse-free RNAse in PBS containing 5 μg/ml PI. In all assays, detached cells were retained by centrifugation of the culture vessels during fixation with 70% ethanol, or by retention of culture media and recovery by centrifugation before assay.
Apoptosis was detected by nuclear fragmentation as described above.

In the next data set the test system is adult male Wistar rats. The following applies: 8 U/kg intratracheal, 14 days. The procedure: Adult male Wistar rats were given intratracheal instillations of 8 U/kg bleomycin sulfate (BLEO) or sterile saline. […] Lung fibrosis was assessed by picrosirius red (PR) quantitation of lung collagen and by hydroxyproline (HP) assay at 14 days after BLEO administration. At the same time point, fragmented DNA in lung epithelial cells was detected by in situ end labeling (ISEL).
Animals and Induction of Pulmonary Fibrosis. Forty adult male Wistar rats, 175-200 grams, were divided into four groups; three groups received a single intratracheal instillation of 8 units per kilogram of bleomycin sulfate (BLEO) in sterile saline. Two days before the administration of BLEO, one group received captopril in the drinking water at a concentration of 500 mg/liter. […] Control animals (NORM) received administrations of the vehicles only.
Immediately before sacrifice, animals were given intraperitoneal injections of sodium pentobarbital and the trachea was cannulated. The middle right lobe was ligated at the hilus, was excised distal to the ligation and was immediately frozen in liquid N2 for hydroxyproline assay of total collagen (see below). The remaining lung tissues were carefully removed and were instilled with 4% paraformaldehyde in PBS at 20 cm H2O constant pressure, then immersed in the same fixative for two hours. The fixed tissues were washed with PBS three times for 15 minutes and were then embedded in paraffin. Five-micron sections of lung were deparaffinized by passing through xylene, xylene:alcohol 1:1, 100% alcohol and 70% alcohol for 10 minutes each. Ethanol was removing by rinsing with distilled water.
In situ end-labeling (ISEL) of fragmented DNA. ISEL was conducted by a modification of the method of Mundle et al., Cell Death and Differentiation, 1: 117-122 (1994). Briefly, ethanol was removed from deparaffinized lung sections by rinsing in distilled water for at least 10 minutes. The slides were then placed in 3% hydrogen peroxide (Sigma Chemical, St. Louis, Mo.) for 30 minutes at 20° C., rinsed with PBS, and incubated with Proteinase K (Sigma Chemical, St. Louis, Mo.) in saline sodium citrate solution (SSC) (0.3 M NaCi and 30 mM sodium citrate in water, pH 7.0) for 15 minutes at 37° C. Samples were rinsed once in water, three times in 0.15 M PBS for 4 minutes each, and then incubated in SSC at 80° C. for 20 minutes. After four rinses in PBS and four rinses in Buffer A (50 mM Tris/HCl, 5 mM MgCl, 10 mM β-mercaptoethanol and 0.005% BSA in water, pH 7.5), the sections were incubated at 18° C. for two hours with ISEL solution (0.001 mM digoxigenin-dUTP, 20 U/ml DNA Polymerase 1 and 0.01 mM each of dATP, dCTP and dGTP in Buffer A). The sections were then rinsed thoroughly five times with Buffer A and three times with PBS. Detection of incorporated dUTP was achieved by incubation for two hours at 37° C. with AP-conjugated anti-digoxigenin (Boerhinger Mannheim, Indianapolis, Ind.) at a 1:400 dilution. Bound AP-antibody complexes were detected with the Fast Blue chromogen system and the sections were mounted with Fluoromount Solution (Southern Biotechnology, Birmingham, Ala.).
Identification of Collagen. Collagens were localized through staining of lung sections by the picrosirius red technique, see Pick et al., Am. J. Pathol. 134:365-371 (1989), which has absolute specificity for collagen. Briefly, sections deparaffinized with xylenes were rehydrated through a descending series of ethanols to distilled water. The hydrated sections were immersed in 0.2% aqueous phosphomolybdic acid for 2 minutes, rinsed in distilled water and then stained for 110 minutes with 0.1% Sirius Red F3BA (Pfal and Bauer, Stamford, Conn.) in saturated aqueous picric acid, pH 2.0. The sections were washed for 2 minutes in 0.01 N HCl, rinsed for 45 seconds in 70% ethanol, dehydrated in three changes of absolute alcohol, cleared in xylene and mounted in a nonaqueous mounting medium.

Where no end group is shown, it is not given here. The star is where a group is joined. CH2Cl = ClC*; CH2F = FC*

Regarding `O=C(O)C1=CC(=C(c2ccc(O)c(C(=O)O)c2)c2ccc(O)c(C(=O)O)c2)C=CC1=O` [aurintricarboxylic acid], the inhibition at 10 µM in data set [1] (Rattus norvegicus, Epithelial cell, read-out: inhibition of bleomycin-induced apoptosis of AEC in vitro) turned out to be 59%.
Regarding `COc1ccc2c(c[n+](C)c3c4cc5c(cc4ccc23)OCO5)c1OC` [chelerythrine], the “inhibition of amiodarone-induced apoptosis” value with primary rat AEC [2] is recorded as “significantly inhibited”. In addition, the “inhibition of ANGII-induced apoptosis of primary rat AEC” value in the data set with primary rat AEC [3] is recorded as “significantly inhibited”.
Regarding `[Na+].[Na+].[Na+].[O]=[V]([O-])([O-])[O-]` [sodium orthovanadate], the “inhibition of amiodarone-induced apoptosis” value in the data set with primary rat AEC [2] is “not”.
For the compound “Asp-Glu-Val-Asp-[O-Me]-CH2F (DEVD(OMe)-CH2F; not fully specified; printed as Asp-Glu-Val-Asp-[O-Me]-CH2F) [DEVD-fmk]”, in data set [4], the “inhibition of apoptosis induced by HIPF-conditioned media” value is listed as “completely abrogated”. Besides, the “inhibition of Fas ligand-induced apoptosis of primary rat AEC (words)” value in the data set with primary rat AEC [5] was “comparable efficacy to inhibit apoptosis”.
Regarding “Tyr-Val-Ala-Asp-[O-Me]-CH2Cl (YVAD(OMe)-CH2Cl; not fully specified; printed as Tyr-Val-Ala-Asp-[O-Me]-CH2Cl) [YVAD-cmk]”, the “inhibition of Fas ligand-induced apoptosis of primary rat AEC (words)” value with primary rat AEC [5] is reported as “comparable efficacy to inhibit apoptosis”.
As for bleomycin sulfate, the “concentration at which induction of apoptosis was statistically significant” value in data set [1] (20 h) worked out at 5 µM. Further, in the data set on adult male Wistar rats, the “increase in alveolar septal collagen (picrosirius red)” value is on record as 100% and the “increase in peribronchial collagen (picrosirius red)” value is 133%.
